A short description of data set [1]: Assignment of risk classifications to benchmark chemical-exposure scenarios. Conditions: for risk: from table S1.
Data set [2] has as its system Tubulin (r). Briefly: IPP Tubulin binding. Conditions: ligand/control Colchicine. On the set-up: species or system rat.
The test system of data set [3] is HepG2 cells. The data set can be described thus: Cell stress panel (CSP), 24 h, 8 concentrations, BIFROST global PoD. Format: cell-based. Conditions: HepG2; cell stress panel PoD. The method, then:
Compounds were tested using the previously developed cell stress panel ([Hatherell et al. 2020]) and the expanded biomarker panel outlined in Middleton et al. HepG2 cells were treated with all compounds for 24 h across 8 concentrations prior to biomarker analysis. The same plate layout and number of replicates (3 biological and 2 technical) were used as previously for each assay within the panel.

For data set [4], the system named is 63 targets with known safety liabilities. Briefly: In vitro pharmacological profiling (IPP) panel, screening at 10 or 100 µM and dose response, minimum IC50/AC50. Format: biochemical. Conditions: lowest AC50 across IPP panel (systemic targets); cell_type -; read-out: ipp_lowest_ac50_systemic PoD.
Data set [5] has as its system HepaRG cells. Briefly: High-throughput transcriptomics (HTTr, TempO-Seq), HepaRG, 24 h. It counts as cell-based, human. Particulars: HepaRG; for pod_httr_bifrost PoD: HTTr BIFROST PoD; for podl_path_minbmd PoD: HTTr minimum pathway BMD(L). On the procedure: (§1) HepG2, HepaRG, and MCF7 cells were treated with each compound for 24 h across a dose range of 7 concentrations and lysed using TempO-Seq lysis buffer (BioSpyder Technologies, proprietary kit, see [Middleton et al. 2022] for method details). Sequencing was performed using TempO-Seq (BioClavis) version 2 of the human whole transcriptome panel and analyzed as described previously in Middleton et al.

Data set [6] relates to human. Particulars: of the 218 adverse event reports identified by Moore et al; ref [9]; cited from earlier work.
For data set [7], the system named is Thyroid hormone receptor alpha, THRA (h). The data set can be described thus: IPP THRA coactivator recruitment (agonist). It counts as biochemical, human. Particulars: agonist, T3.
In data set [8] the target is Voltage-dependent L-type Ca2+ channel (dihydropyridine site), CACNA1C (r) (Rattus norvegicus, UniProt P22002). Format: binding.
The subject of data set [9] is Glutamate receptor ionotropic NMDA 1 non-selective, GRIN1 (r). Conditions: control CGS 19755.
The subject of data set [10] is Sodium channel protein type 5 subunit alpha (site 2), SCN5A (r). Format: binding, rat.
The conditions of data set [11]: PBK level L2; single value or median; ref [2],[4],[6],[7],[8],[10],[11],[15],[18],[27],[34]; cited from earlier work.
The subject of data set [12] is Potassium Voltage-Gated Channel Kv non-selective, KCNQ1 (r). Briefly: IPP KCNQ1 binding (antagonist radioligand). Details: species or system rat. Particulars: control α-dendrotoxin.
The target in data set [13] is T1, Adenosine receptor A2a, ADORA2A (h) (Homo sapiens, UniProt P29274).
T1 construct: purchased Eurofins Cerep (SafetyScreen44-based IPP panel)
The data set can be described thus: IPP ADORA2A binding (agonist radioligand). Particulars: control NECA.

The subject of data set [14] is MCF7 cells. Briefly: High-throughput transcriptomics (HTTr, TempO-Seq), MCF7, 24 h. Format: cell-based, human. Conditions: MCF-7; for pod_httr_bifrost PoD: HTTr BIFROST PoD; for podl_path_minbmd PoD: HTTr minimum pathway BMD(L). On the procedure:
as §1

The subject of data set [15] is HepG2 cells. Briefly: High-throughput transcriptomics (HTTr, TempO-Seq), HepG2, 24 h. It counts as cell-based, human. Conditions: HepG2; for pod_httr_bifrost PoD: HTTr BIFROST PoD; for podl_path_minbmd PoD: HTTr minimum pathway BMD(L). On the procedure:
as §1

The subject of data set [16] is Gamma-aminobutyric acid receptor subunit alpha-1 BZD site, GABRA1A (r). It counts as binding, rat. Conditions: control diazepam.
The conditions of data set [17]: PBK level L2; taken or scaled from references (median where several); ref [6],[7],[10],[19]; cited from earlier work.
The subject of data set [18] is dog. Particulars: 52 weeks, ref ToxRefDB/Paul-Friedman et al. (2020)/regulatory opinions; cited from earlier work.
Data set [19] concerns the target Potassium voltage-gated channel subfamily H member 2 hERG, KCNH2 (h) (Homo sapiens, UniProt Q12809). Particulars: 10 uM; [3H] Dofetilide; control Terfenadine.
The conditions of data set [20]: human.
The conditions of data set [21]: fasted, cited from earlier work.
The conditions of data set [22]: PBK input, levels L2/L3; at the pH in column Solubility pH; ref [11]; cited from earlier work.
The nature of data set [23]: unbound fraction in plasma (fup). Conditions: PBK input, level L2; [2] internal data (unpublished).
[24] abbreviates: 100 uM, * denotes assay interference (2-Amino-6-chloro-4-nitrophenol, HC Red 3).
Where [25] appears, read: Oral tablet 1.25 mg, 15 male 14 female, calibration, ref Devineni et al. 2015.
[26] abbreviates: Oral tablet 1.75 mg, healthy 10 male 10 female, validation, ref Graefe-Mody et al. 2011.
[27] abbreviates: Oral tablet 2.5 mg, validation, ref Matsuda et al. 1983.
Where [28] appears, read: Oral tablet 5 mg, 9 male, validation, ref Sartor et al. 1980.

Where two headings read alike, the source gives them in different places.

Chain of Voltage-dependent L-type Ca2+ channel (dihydropyridine site), CACNA1C (r) (P22002 whole entry): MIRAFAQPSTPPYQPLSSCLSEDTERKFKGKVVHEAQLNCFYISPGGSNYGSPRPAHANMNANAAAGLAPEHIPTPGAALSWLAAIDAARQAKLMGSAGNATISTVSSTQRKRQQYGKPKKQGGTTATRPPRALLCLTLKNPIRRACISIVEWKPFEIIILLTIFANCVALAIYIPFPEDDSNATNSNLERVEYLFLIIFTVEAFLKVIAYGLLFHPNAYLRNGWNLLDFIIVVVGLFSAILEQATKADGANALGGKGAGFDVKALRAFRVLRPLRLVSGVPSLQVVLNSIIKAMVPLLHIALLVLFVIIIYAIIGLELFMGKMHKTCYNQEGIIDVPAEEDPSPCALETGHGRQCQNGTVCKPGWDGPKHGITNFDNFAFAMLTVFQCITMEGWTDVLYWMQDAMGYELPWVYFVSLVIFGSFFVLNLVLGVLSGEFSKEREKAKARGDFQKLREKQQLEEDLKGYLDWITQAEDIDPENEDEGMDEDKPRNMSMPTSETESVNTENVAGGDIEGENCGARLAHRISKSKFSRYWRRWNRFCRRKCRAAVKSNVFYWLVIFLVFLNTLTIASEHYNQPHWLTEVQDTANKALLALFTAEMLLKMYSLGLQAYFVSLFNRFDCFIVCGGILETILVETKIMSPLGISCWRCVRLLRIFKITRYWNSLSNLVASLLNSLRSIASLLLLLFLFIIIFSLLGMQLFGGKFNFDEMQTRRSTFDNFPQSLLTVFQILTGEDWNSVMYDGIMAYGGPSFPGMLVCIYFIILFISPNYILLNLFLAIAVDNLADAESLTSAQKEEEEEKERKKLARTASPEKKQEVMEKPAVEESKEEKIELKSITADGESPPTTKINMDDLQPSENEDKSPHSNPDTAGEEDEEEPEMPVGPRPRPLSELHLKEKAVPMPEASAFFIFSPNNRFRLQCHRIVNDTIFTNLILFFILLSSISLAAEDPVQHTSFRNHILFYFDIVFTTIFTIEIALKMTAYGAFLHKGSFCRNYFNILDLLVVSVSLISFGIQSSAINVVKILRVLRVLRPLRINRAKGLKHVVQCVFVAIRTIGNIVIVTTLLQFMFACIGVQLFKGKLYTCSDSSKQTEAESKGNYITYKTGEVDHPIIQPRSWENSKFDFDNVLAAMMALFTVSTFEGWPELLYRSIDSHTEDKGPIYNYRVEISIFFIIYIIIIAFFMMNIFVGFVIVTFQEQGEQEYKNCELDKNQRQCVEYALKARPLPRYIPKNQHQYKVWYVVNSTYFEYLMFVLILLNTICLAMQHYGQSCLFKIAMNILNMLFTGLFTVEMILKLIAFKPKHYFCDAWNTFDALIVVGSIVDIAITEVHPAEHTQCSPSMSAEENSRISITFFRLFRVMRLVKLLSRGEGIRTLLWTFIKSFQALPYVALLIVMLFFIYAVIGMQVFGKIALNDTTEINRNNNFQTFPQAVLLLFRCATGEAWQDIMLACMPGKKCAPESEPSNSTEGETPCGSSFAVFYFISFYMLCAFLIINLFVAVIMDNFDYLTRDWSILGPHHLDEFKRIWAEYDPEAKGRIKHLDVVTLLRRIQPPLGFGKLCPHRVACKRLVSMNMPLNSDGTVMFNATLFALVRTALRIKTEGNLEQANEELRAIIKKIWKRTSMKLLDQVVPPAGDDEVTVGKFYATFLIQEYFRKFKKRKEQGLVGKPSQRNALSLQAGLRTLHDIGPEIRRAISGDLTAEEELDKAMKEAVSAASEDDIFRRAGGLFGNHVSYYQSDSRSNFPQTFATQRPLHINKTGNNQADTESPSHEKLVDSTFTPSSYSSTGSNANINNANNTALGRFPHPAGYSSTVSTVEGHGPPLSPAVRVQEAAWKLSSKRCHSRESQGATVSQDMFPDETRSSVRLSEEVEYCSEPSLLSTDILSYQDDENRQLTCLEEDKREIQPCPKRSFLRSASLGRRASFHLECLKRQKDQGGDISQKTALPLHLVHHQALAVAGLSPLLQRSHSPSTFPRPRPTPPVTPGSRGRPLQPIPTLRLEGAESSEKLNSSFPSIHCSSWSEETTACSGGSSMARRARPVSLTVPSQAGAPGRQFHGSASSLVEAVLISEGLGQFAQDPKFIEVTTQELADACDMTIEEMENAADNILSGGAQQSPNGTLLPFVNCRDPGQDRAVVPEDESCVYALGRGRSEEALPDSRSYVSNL
T1 sequence (P29274 whole entry): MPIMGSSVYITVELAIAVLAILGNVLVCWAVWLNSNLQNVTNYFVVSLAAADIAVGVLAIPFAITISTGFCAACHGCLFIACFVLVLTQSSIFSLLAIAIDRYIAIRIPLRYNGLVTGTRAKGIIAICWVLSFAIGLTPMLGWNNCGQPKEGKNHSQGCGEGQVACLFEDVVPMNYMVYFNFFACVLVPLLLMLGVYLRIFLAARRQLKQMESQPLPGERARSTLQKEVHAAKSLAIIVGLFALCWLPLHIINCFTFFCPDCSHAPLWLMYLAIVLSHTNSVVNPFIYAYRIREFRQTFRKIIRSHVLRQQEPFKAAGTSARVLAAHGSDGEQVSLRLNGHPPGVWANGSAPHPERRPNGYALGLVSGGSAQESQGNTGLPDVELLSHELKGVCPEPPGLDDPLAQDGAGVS
Chain of Potassium voltage-gated channel subfamily H member 2 hERG, KCNH2 (h) (Q12809 whole entry): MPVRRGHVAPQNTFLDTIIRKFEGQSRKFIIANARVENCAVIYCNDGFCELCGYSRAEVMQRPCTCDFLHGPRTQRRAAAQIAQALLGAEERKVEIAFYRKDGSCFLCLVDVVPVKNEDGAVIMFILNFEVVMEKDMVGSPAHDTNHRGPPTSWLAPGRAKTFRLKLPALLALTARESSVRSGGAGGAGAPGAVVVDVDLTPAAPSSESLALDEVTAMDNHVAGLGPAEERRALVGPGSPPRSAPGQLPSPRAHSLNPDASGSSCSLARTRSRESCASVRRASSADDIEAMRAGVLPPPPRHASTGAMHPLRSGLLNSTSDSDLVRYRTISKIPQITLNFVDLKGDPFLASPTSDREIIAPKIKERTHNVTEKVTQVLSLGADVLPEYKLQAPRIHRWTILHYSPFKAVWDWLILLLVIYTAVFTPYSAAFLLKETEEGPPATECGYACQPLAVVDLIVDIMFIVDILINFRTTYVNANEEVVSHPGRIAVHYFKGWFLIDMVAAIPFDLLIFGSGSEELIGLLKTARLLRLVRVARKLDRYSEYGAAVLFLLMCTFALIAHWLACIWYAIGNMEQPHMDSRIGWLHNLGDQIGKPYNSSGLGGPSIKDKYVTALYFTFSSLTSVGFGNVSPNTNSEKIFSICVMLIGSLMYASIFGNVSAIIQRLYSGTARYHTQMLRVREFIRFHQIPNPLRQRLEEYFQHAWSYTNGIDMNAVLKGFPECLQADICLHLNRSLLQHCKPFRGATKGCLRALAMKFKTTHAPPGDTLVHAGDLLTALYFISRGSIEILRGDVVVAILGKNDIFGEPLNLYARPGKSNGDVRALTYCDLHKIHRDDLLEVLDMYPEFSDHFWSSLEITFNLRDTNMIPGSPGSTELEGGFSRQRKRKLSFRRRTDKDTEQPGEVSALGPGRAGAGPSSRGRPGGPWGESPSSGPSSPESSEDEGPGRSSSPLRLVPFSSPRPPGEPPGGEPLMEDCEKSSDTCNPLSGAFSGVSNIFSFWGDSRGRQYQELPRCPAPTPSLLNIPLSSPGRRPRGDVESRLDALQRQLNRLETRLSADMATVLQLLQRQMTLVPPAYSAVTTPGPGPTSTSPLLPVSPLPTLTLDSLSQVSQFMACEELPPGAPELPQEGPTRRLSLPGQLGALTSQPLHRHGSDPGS

With `CCOC(=O)c1ccc(N)cc1` [Benzocaine, Ethyl 4-aminobenzoate], the “Risk Classification” value in data set [1] (Dermal 20% in Gel) is recorded as “High risk”. For the same compound, in [1] (Oral, 22mg/kg is the safety dose, Solution, Exp1), the risk was 1. Also, the “IPP screening %, Specific binding” value in [2] (100 uM) is recorded as 15.0%. In addition, the “pod_cell_stress PoD” value in data set [3] amounted to 47.784 µM. For the same compound, the AC50 in [4] is 6 µM. Also, the “pod_httr_bifrost PoD” value in data set [5] is recorded as 103.552 µM; in data set [14] it was 0.8705 µM; in [15], 9.489 µM. Further, the “podl_path_minbmd PoD” value in data set [5] is 413.121 µM; in data set [14] it was 19.4739 µM; in data set [15], 242.367 µM. Also, the “adverse event reports related to methaemaglobinemia” value in [6] is “Of the 218 adverse event reports identified by Moore et al, 136 were related to methaemaglobinemia with 2 cases resulting in deaths and 107 resulting in serious events”. Moreover, the “IPP screening %, Coactivator recruitment” value in [7] (setting [24]) amounted to 2.0%. Also, the Specific binding is on record as 10.5% in data set [8]; 11.5% in data set [9] (IPP screening at 100 uM); -0.8% in data set [10]; 3.6% in [12] (IPP screening at 100 uM); 36.2% in data set [13] (IPP screening at 100 uM); -9.1% in [16] (IPP screening at 100 uM). Besides, in [11], the Fup is listed as 36.7%. Moreover, in data set [17], the “Intrinsic Liver Clearance” value is 7799.2 L/h.
With `N#CC(CCc1ccc(Cl)cc1)(Cn1cncn1)c1ccccc1` (centres unmarked) [Fenbuconazole, 4-(4-Chlorophenyl)-2-phenyl-2-[(1H-1,2,4-triazol-1-yl)methyl]butanenitrile], the “Risk Classification” value was “Low risk” in data set [1] (Oral, residue, 0.006 mg/kg bw/day) and “Low risk” in data set [1] (Oral, residue, 73% of 0.006 mg/kg bw/day). Moreover, the risk is 0 in data set [1] (Oral, 73% ADI of 0.006 mg/kg bw/day, Food residue, Exp3) and 0 in [1] (Oral, ADI 0.006 mg/kg bw/day, Food residue, Exp2). Further, the figures for the “IPP screening %, Specific binding” value in data set [2] (10 uM) and in data set [19] were -20.0% and 79.9%, respectively. Further, the “pod_cell_stress PoD” value in data set [3] came to 2.477 µM. Further, the AC50 in data set [4] stood at 2.86 µM. For the same compound, the “pod_httr_bifrost PoD” value in [5] came to 0.6247 µM; in data set [14], 1.305 µM; in [15] it was 0.5034 µM. In addition, the “podl_path_minbmd PoD” value in [5] is on record as 4.705 µM; in data set [14] it was 15.4204 µM; in data set [15], 16.5577 µM. The “IPP screening %, Coactivator recruitment” value in data set [7] (10 uM) was found to be 2.0%. Moreover, the Specific binding is 97.8% in [8] (IPP screening at 10 uM, control nitrendipine); 38.6% in data set [9] (IPP screening at 10 uM); 100.8% in [10] (IPP screening at 10 uM, control veratridine); 3.0% in [12] (IPP screening at 10 uM); 34.0% in data set [13] (IPP screening at 10 uM); 3.5% in data set [16] (IPP screening at 10 uM). The Fup in [11] was 2%. Further, in [17], the “Intrinsic Liver Clearance” value was 10900 L/h. Moreover, the “PoD (NOAEL)” value in data set [18] was 0.38 mg/kg bw/day.
Turning to `COc1ccc(Cl)cc1C(=O)NCCc1ccc(S(=O)(=O)NC(=O)NC2CCCCC2)cc1` [Glybenclamide, 5-Chloro-N-(2-{4-[(cyclohexylcarbamoyl)sulfamoyl]phenyl}ethyl)-2-methoxybenzamide], the results for the “Intrinsic Liver Clearance” value in data set [20] and in [17] were 973.605 L/h and 14600 L/h, respectively. Besides, in data set [2] (100 uM), the “IPP screening %, Specific binding” value worked out at 27.0%. For the same compound, the “pod_cell_stress PoD” value in data set [3] is on record as 24.3128 µM. Also, in [4], the AC50 came to 8.1 µM. Moreover, the entries for the “pod_httr_bifrost PoD” value in data set [5], in data set [14] and in data set [15] were 0.07298 µM, 1.409 µM and 5.521 µM, respectively. Moreover, the figures for the “podl_path_minbmd PoD” value in [5], in [14] and in data set [15] were 22.5491 µM, 34.7309 µM and 29.9584 µM, respectively. The “IPP screening %, Coactivator recruitment” value in data set [7] (setting [24]) was 2.0%. In addition, the Specific binding in data set [8] was 18.0%; in data set [9] (IPP screening at 100 uM), 10.7%; in data set [10], 22.5%; in data set [12] (IPP screening at 100 uM), 3.6%; in data set [13] (IPP screening at 100 uM) it was -67.7%; in data set [16] (IPP screening at 100 uM), 13.1%. In addition, the “Reported AUC0-t” value in data set [21] (setting [25]) is 0.181 µg·h/mL; in [21] (setting [26]), 0.3559 µg·h/mL; in [21] (setting [27]) it was 0.2295 µg·h/mL; in data set [21] (setting [28]), 1.1158 µg·h/mL. Also, the Reported cmax in [21] (setting [25]) was 0.028 µg/mL; in [21] (setting [26]), 0.1283 µg/mL; in [21] (setting [27]), 0.072 µg/mL; in data set [21] (setting [28]), 0.2682 µg/mL. For the same compound, the Reported tmax in data set [21] (setting [25]) is reported as 2.93 h; in data set [21] (setting [26]), 1.5927 h; in data set [21] (setting [27]) it was 1.5 h; in data set [21] (setting [28]), 3 h.
What is called Aqueous Solubility is how much of the substance goes into solution per volume. On to `O=C(O)c1ccc2c(c1)C(=O)OC2=O` [Trimellitic-anhydride], for which the “Aqueous Solubility” value in data set [22] is recorded as 1.04 mg/mL. The compound further gave a Fup in data set [23] of 19.7%.
